According to US20150252049A1, “MGLU2/3 ANTAGONISTS FOR THE TREATMENT OF AUTISTIC DISORDERS” (Hoffmann-La Roche Inc., priority 2012, published 2015):

System: BTBR T+tf/J (BTBR) mice
Experiment: 3-Chambered Social Test (animal vs. object)
Assay type: in vivo, mouse
Settings: male BTBR-T+/tfj mice, 3-10-30 mg/kg p.o. 3 hours before habituation; effect especially in the first 5 minutes at 10 mg/kg (FIG. 2/3)
Method: Deficits in social interactions and social approach, unusual patterns of ultrasonic vocalization, and high levels of repetitive self-grooming are included.^20
The 3-Chambered Social Test is used to assess autistic-like behaviors. Shortly after a period of habituation a mouse's sociability is determined by evaluating the amount of time the test mouse spends approaching a wire cage (holding cup) containing an unfamiliar mouse.
48 male mice BTBR-T+/tfj, 8-9 weeks old, were used in the experiments described herein in 4 groups n=12/group. Further, 6 male stimulus mice (unfamiliar BTBR T+tf/J mice) of similar age and weight were used.
Low light of 20 Lux was used. With the doorways into the two side chambers closed, the test mouse was placed in the middle chamber and allowed to explore the apparatus for 10 min. Thereafter, the doorways were opened and the test mouse was allowed to explore the entire test box for 10 min. The cages were empty. The sociability test was conducted immediately following the habituation phase.
While the test mouse was enclosed in the center compartment of the test box a stimulus mouse was enclosed in a wire cage (holding cup) in one side chamber. […] The amount of time spent and the number of entries into each chamber was measured, as was the time spent in a small perimeter around the cup holding the stimulus mouse. […]

CCC(=O)NS(=O)(=O)c1cccc(-c2cccc(-c3cc(-c4ccc(C(F)(F)F)cc4)cc(C)n3)n2)c1 [IIb]
social preference (duration in the chamber, duration sniffing): increased social preference
